# In patent US20150037351A1, “NOVEL THERAPEUTIC TARGET FOR THE PREVENTION OF TUMOUR METASTASIS” (MAX-PLANCK-GESELLSCHAFT ZUR FORDERUNG DER WISSENSCHAFTEN …, priority 2012, published 2015):
# Tests used:
# MS1 endothelial cells = test: morphology of the endothelial monolayer (VE-cadherin/F-actin staining, discontinuous cellular junctions); format: cell-based, mouse
# Protocol: (§1) The permeability assay was performed as described for the transwell assay with some modifications. Briefly, MS1 cells were cultured on transwell filters and the supernatant of platelets alone or platelets stimulated with tumour cells was mixed 1:1 with TB containing 2 mg/ml 70 kDa FITC-DX of which 50 μl were added to the upper compartment in the absence or presence of apyrase (20 U/ml). 250 μl TB were added to the lower compartment. After 90 min, the amount of passed FITC-DX to the lower compartment was measured (FlexStation3, Molecular Devices). For visualization of changes in the endothelial barrier, MS1 cells were stimulated for 1 h with supernatants from tumour cells alone or from tumour cells after stimulation with platelets in the absence or presence of apyrase (20 U/ml). Cells were further processed for staining and imaging
# Cells or tissues were fixed with 4% para-formaldehyde. Tissues were further cryopreserved in 30% sucrose (Sigma), embedded in OCT (Fisher Scientific), and cryosectioned at 16 μm. Cells or sections were stained with rat anti-VE-Cadherin (BD Pharmingen) and Alexa Fluor (AF) 594- (Molecular Probes) or Cy5- (Dianova) conjugated secondary antibodies. DAPI (Sigma) was used to stain cell nuclei, and AF488-conjugated phalloidin (Molecular Probes) to stain F-actin. Images were acquired using a Leica SP5 confocal microscope and analyzed using ImageJ (NIH).
# [1] = system: MS1 endothelial cell layer; test: endothelial barrier permeability assay (FITC-dextran); format: cell-based, mouse
# Protocol: as §1
# P2Y2 receptors [2] = target: T1, P2Y2 receptors (Homo sapiens, UniProt P41231); settings: cited from earlier work
# P2Y2 receptors [3] = target: T1, P2Y2 receptors; settings: natural ligands of the human P2Y2 receptor; cited from earlier work
# B16 cells = test: transwell assay: tumour cell transmigration through an endothelial cell layer; format: cell-based, mouse
# Protocol: MS1 cells (8×10^3 at seeding in 50 μl) or HUVEC (6×10^3 at seeding in 50 μl) were cultured for 2 days on 96-transwell plates with polyester membranes of 8-μm pore size (Corning) with medium changes every day. For knockdown experiments, 4×10^5 MS1 cells were transfected using Amaxa Nucleofector Kit V with different sets of siRNA against the P2Y2 receptor (Qiagen) and 1.2×10^4 cells in 50 μl were seeded to the up-per compartment. Where indicated, MS1 cells were pre-incubated with 5-BDBD (1 μM) or MRS2500 (100 nM) for 30 min. Before the experiment, exemplary wells of each condition were visually checked by calcein-AM staining of the endothelial monolayer and only plates with 100% confluency were used. For transmigration, the medium from the upper compartment was removed and 50 μl of a 1:1 mixture of platelets (2×10^8/ml) with calcein-AM-labeled tumour cells (8×10^5/ml) in TB was added to the upper compartment alone or with flurbiprofen (100 nM), ketanserin (3 nM) or apyrase (20 […] (10 μM) and 2MeSADP (10 μM) were added in the absence of platelets. For supernatant experiments, human platelets (5×10^7/ml) or mouse platelets (2×10^8/ml) were incubated for 30 min at 37° C. alone or with tumour cells (1.6×10^6/ml) and centrifuged at 350×g for 10 min. The supernatant was mixed 1:1 with TB (for MS1 cells) or cell culture medium (for HUVECs) containing calcein-AM-labeled tumour cells (8×10^5/ml) and 50 μl were added to the upper compartment. In all experiments, 250 μl TB or culture medium were added to the lower compartment, and tumour cells were allowed to transmigrate over night. On the next day, the non-transmigrated tumour cells from the upper compartment were removed and only the transmigrated tumour cells on the lower side of the filter or the bottom of the transwell were imaged (Zeiss Axio Observer.Z1 and Olympus IX81) and quantified with ImageJ (NIH). Each experiment was performed at least 3 times with a minimum of 5 wells per experiment.
# [4] = B16 cells on MS1 endothelial cells with platelets, flurbiprofen 100 nM, ketanserin 3 nM, apyrase 20 U/ml
# T1 sequence (P41231 whole entry): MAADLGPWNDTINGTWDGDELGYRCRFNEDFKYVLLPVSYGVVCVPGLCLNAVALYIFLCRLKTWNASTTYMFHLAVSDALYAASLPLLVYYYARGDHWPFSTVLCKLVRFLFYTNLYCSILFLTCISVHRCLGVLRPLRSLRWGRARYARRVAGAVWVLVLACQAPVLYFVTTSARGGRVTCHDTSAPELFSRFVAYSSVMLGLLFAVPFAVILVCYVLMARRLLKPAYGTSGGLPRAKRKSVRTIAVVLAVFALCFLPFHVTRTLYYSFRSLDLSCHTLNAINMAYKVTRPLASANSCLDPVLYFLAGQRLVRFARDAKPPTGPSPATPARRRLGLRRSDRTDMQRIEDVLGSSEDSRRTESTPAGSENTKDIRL
compound,measurement,setting,value
Nc1ncnc2c1ncn2[C@@H]1O[C@H](COP(=O)(O)OP(=O)(O)OP(=O)(O)O)[C@@H](O)[C@H]1O [ATP],tight interendothelial junctions,"MS1 endothelial cells; ATP 10 μM, 30 min, MS1 cells",loss
same,endothelial permeability,"[1]; ATP 10 μM, MS1 monolayer, FITC-dextran",increase
O=c1ccn([C@@H]2O[C@H](COP(=O)(O)OP(=O)(O)OP(=O)(O)O)[C@@H](O)[C@H]2O)c(=O)[nH]1 [UTP],agonist efficacy at P2Y2 receptors in comparison to ATP,P2Y2 receptors [2],full agonist
Nc1ncnc2c1ncn2[C@@H]1O[C@H](COP(=O)(O)OP(=O)(O)O)[C@@H](O)[C@H]1O [ADP],EC50,P2Y2 receptors [3],considerably lower potency
same,agonist efficacy at P2Y2 receptors in comparison to ATP,P2Y2 receptors [2],less effective agonist
CC(C(=O)O)c1ccc(-c2ccccc2)c(F)c1 (stereo not shown) [flurbiprofen],platelet-dependent facilitation of tumour cell transmigration,B16 cells; 0.1 µM,no effect
O=C(c1ccc(F)cc1)C1CCN(CCn2c(=O)[nH]c3ccccc3c2=O)CC1 [ketanserin],platelet-dependent facilitation of tumour cell transmigration,B16 cells; [4],no effect
apyrase,loss of tight interactions of endothelial cells in the monolayer induced by platelets with tumour cells,"MS1 endothelial cells; apyrase 20 U/ml, 1 h",blocked
same,diffusion of FITC-labeled dextran over an endothelial cell layer enhanced by platelets with tumour cells,"[1]; apyrase 20 U/ml, 90 min",blocked
same,platelet-dependent facilitation of tumour cell transmigration,B16 cells; [4],ablated
